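Dose response: 5 concentrations. Exposure: 48 h. Format: 96-well plates. Endpoint: linear interpolation; highest concentration if not reached. GI50: concentration for 50% inhibition of growth.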 Calls of active or inactive are those of the source. Cut-off read from the data, not from the text of the source: active = GI50 up to about 1.1 µM and inactive = higher.
Columns and labels:
Test in all cases: NCI-60 cell line screen, 48 h
M14 = system: M14
RPMI-8226 = system: RPMI-8226
OVCAR-5 = system: OVCAR-5
KM-20L2 = system: KM-20L2
SN12C = system: SN12C
UO-31 = system: UO-31
SK-MEL-2 = system: SK-MEL-2
SNB-75 = system: SNB-75
SK-MEL-5 = system: SK-MEL-5
CAKI-1 = system: CAKI-1
HCC 2998 = system: HCC 2998
A498 = system: A498
K562 = system: K562
MOLT-4 = system: MOLT-4
SNB-19 = system: SNB-19
CCRF-CEM = system: CCRF-CEM
786-0 = system: 786-0
NCI-H522 = system: NCI-H522
SK-MEL-28 = system: SK-MEL-28
NCI-H23 = system: NCI-H23
ACHN = system: ACHN
HOP-62 = system: HOP-62
UACC-257 = system: UACC-257
EKVX = system: EKVX
OVCAR-3 = system: OVCAR-3
U-251 = system: U-251
KM12 = system: KM12
A549 = system: A549
NCI-H460 = system: NCI-H460
SF-295 = system: SF-295
SF-268 = system: SF-268
OVCAR-8 = system: OVCAR-8
LXFL 529 = system: LXFL 529
SW-620 = system: SW-620
DLD-1 = system: DLD-1
OVCAR-4 = system: OVCAR-4
HCT-15 = system: HCT-15
TK-10 = system: TK-10
SNB-78 = system: SNB-78
HT-29 = system: HT-29
Malme-3M = system: Malme-3M
XF498 = system: XF498

SMILES: COc1cccc(Cc2c3cc(OC)ccc3cc[n+]2C)c1
- GI50 (M14): 67.5 µM (inactive)
- GI50 (RPMI-8226): 24.7 µM (inactive)
- GI50 (OVCAR-5): > 100 µM (inactive)
- GI50 (KM-20L2): 65.5 µM (inactive)
- GI50 (SN12C): 32.6 µM (inactive)
- GI50 (UO-31): > 100 µM (inactive)
- GI50 (SK-MEL-2): 72.6 µM (inactive)
- GI50 (SNB-75): 32.8 µM (inactive)
- GI50 (SK-MEL-5): 22.4 µM (inactive)
- GI50 (CAKI-1): > 100 µM (inactive)
- GI50 (HCC 2998): 87.9 µM (inactive)
- GI50 (A498): > 100 µM (inactive)
- GI50 (K562): 36 µM (inactive)
- GI50 (MOLT-4): > 100 µM (inactive)
- GI50 (SNB-19): 43.1 µM (inactive)
- GI50 (CCRF-CEM): 87.3 µM (inactive)
- GI50 (786-0): > 100 µM (inactive)
- GI50 (NCI-H522): 22.9 µM (inactive)
- GI50 (SK-MEL-28): 33.9 µM (inactive)
- GI50 (NCI-H23): 26.6 µM (inactive)
- GI50 (ACHN): > 100 µM (inactive)
- GI50 (HOP-62): > 100 µM (inactive)
- GI50 (UACC-257): 21.4 µM (inactive)
- GI50 (EKVX): > 100 µM (inactive)
- GI50 (OVCAR-3): 47.5 µM (inactive)
- GI50 (U-251): 53.2 µM (inactive)
- GI50 (KM12): 40.5 µM (inactive)
- GI50 (A549): > 100 µM (inactive)
- GI50 (NCI-H460): > 100 µM (inactive)
- GI50 (SF-295): > 100 µM (inactive)
- GI50 (SF-268): 36.2 µM (inactive)
- GI50 (OVCAR-8): 73.6 µM (inactive)
- GI50 (LXFL 529): 36.4 µM (inactive)
- GI50 (SW-620): > 100 µM (inactive)
- GI50 (DLD-1): > 100 µM (inactive)
- GI50 (OVCAR-4): 58.5 µM (inactive)
- GI50 (HCT-15): > 100 µM
- GI50 (TK-10): > 100 µM (inactive)
- GI50 (SNB-78): > 100 µM (inactive)
- GI50 (HT-29): 30.3 µM (inactive)
- GI50 (Malme-3M): > 100 µM (inactive)
- GI50 (XF498): 12.4 µM (inactive)
